Each block holds one compound with its values, some of them ahead of it.
Columns and labels:
[1] = test system: MCF-7 breast cancer; settings: in vitro; cited from earlier work
[2] = test system: human pancreatic cancers; assay: Inhibition of human pancreatic cancers; settings: in particular cancers rich in glucocorticoid receptors
[3] = test system: glucocorticoid activity; assay: Glucocorticoid activity (general statements)
[4] = test system: corneal neovascularization; assay: Inhibition of corneal neovascularization in cauterized rat corneas, topical application four times per day for four days; assay type: in vivo; settings: for Neovascularization (percent of the corneal area occupied by blood vessels): mean ± S.D.; for Percent Inhibition of neovascularization: versus vehicle
Procedure: (§1) The ability of etianic acids to inhibit angiogenesis was evaluated in vivo in rats. Each animal had its corneas cauterized with silver nitrate/potassium nitrate. The cauterization causes the normally avascular cornea to undergo neovascularization (anglogenesis). This animal model, refined by Proia et al., Lab. Invest. 58: 473-479 (1988) and now a well-established assay, quantifies corneal neovascularization by computerized image analysis. […] Ophthalmol. Vis. Science 30: 1588-1593 (1989), and can provide a more definitive evaluation of angiostatic activity than models using the chorioallantoic membrane in the chick egg or the rabbit eye model. See Proia et al., Exp. Eye Res. (in press--to be published in Vol. 57 in 1993).
(§2) Female rats were obtained from Zivic-Miller Laboratories, Zelienople, Pa. There were 6-8 rats included in each treatment group. Neovascularization was induced by cauterizing both corneas of each anesthetized rat; this was performed by applying the tip of a silver nitrate/potassium nitrate to the cornea for 5-7.5 seconds.
The corneal tissues were treated with steroid formulations.
Steroids were formulated in vehicle containing 10 percent Tween 20 (polyoxyethylene sorbitan monolaurate) dissolved in 0.9 percent saline with percent (by volume) 0.2M tris (hydroxymethyl)aminomethane, pH 7.4. […] All steroids were tested at a concentration of 1 percent; additionally, some formulations were also tested at 0.01 percent, 0.1 percent, and 2.5 percent. Three 10 μl drops of each concentration of steroid were applied topically to each cauterized cornea four times per day (8:00 a.m., noon, 4:00 p.m., and 8:00 p.m.).
(§3) After four days of treatment, the animals were euthanized by rapid asphyxiation in a carbon dioxide chamber. The vasculature was perfused with a mixture of 10 percent india ink/11 percent gelatin/lactated Ringer's solution. Corneal tissue was dissected and prepared as flat mounts. During dissection, the corneas were examined with a dissecting microscope, and the degree of neovascularization was graded numerically from 1+ to 4+. After dehydration with alcohols, cleaning with xylene, mounting, and drying, the area of each cornea and the length of blood vessels were determined by computerized image analysis.
Statistical evaluation of inhibition of corneal neovascularization by each concentration of drug was evaluated using Mann Whitney U Tests (one-tailed; P<0.05=significant difference). […] In all cases, however, image analysis was used to quantitatively confirm visual observations.

[5] = test system: thymus; assay: Thymus weight of rats treated topically in the corneal angiogenesis study; assay type: in vivo, rat
Procedure: as §1, §2
(§4) Steroids were formulated in vehicle containing 10 percent Tween 20 (polyoxyethylene sorbitan monolaurate) dissolved in 0.9 percent saline with percent (by volume) 0.2M tris (hydroxymethyl)aminomethane, pH 7.4. The steroids dissolved readily when the pH was adjusted to 7.0-8.0 with NaOH or KOH. All steroids were tested at a concentration of 1 percent; additionally, some formulations were also tested at 0.01 percent, 0.1 percent, and 2.5 percent. Three 10 μl drops of each concentration of steroid were applied topically to each cauterized cornea four times per day (8:00 a.m., noon, 4:00 p.m., and 8:00 p.m.).
as §3

[6] = Body weight of rats treated topically in the corneal angiogenesis study; assay type: in vivo, rat; settings: topical, all concentrations
Procedure: as §1, §2, §4
as §3, with “Corneal tissue was dissected and prepared as flat mounts. During dissection, the corneas were examined with a dissecting microscope, and the degree of neovascularization was graded numerically from 1+ to 4+.” left out

[7] = test system: corneal neovascularization; assay: Corneal angiogenesis inhibition, subcutaneous injection once/day; assay type: in vivo, rat
Procedure: as §1, §2, §3
The ability of compounds 2013, 518, and 513 to inhibit corneal angiogenesis when injected subcutaneously once/day to was assessed on rats prepared as described in Example 8. Dexamethasone was used as a positive control.

[8] = test system: rat corneas; assay: Histological study of steroid-treated cauterized corneal tissue; assay type: in vivo; settings: 1 percent topical QID
Procedure: A histological study was performed in which either vehicle or 1 percent compound 2013 (17β-carboxylic acid derivative of prednisolone) was applied topically (QID) to rat corneas cauterized as described in Example 23. Five rats were included in each experimental group. The rats were killed either one or four days after treatment.
Histological sections were prepared through the cautery site.

[9] = test system: Dunning R3327 (PAP) prostatic adenocarcinoma; settings: in vitro; cited from earlier work
[10] = test system: Kirsten murine sarcoma virus transformed human skin fibroblasts; settings: cited from earlier work

Compound: C[C@]12C=CC(=O)C=C1CC[C@@H]1[C@@H]2[C@@H](O)C[C@@]2(C)[C@H]1CC[C@]2(O)C(=O)NCc1ccccc1 [benzylamide derivative, prednienic acid benzylamide]
Inhibition of MCF-7 breast cancer (in words) [1]: inhibits MCF-7 breast cancer

Compound: C[C@]12C=C(C(=O)O)C(=O)C=C1CC[C@@H]1[C@@H]2[C@@H](O)C[C@@]2(C)[C@H]1CC[C@]2(C)O [2-carboxyl-11β,17β-dihydroxy-17α-methyl-1,4-androstadien-3-one]
Inhibition of human pancreatic cancers (in words) [2]: inhibits certain human pancreatic cancers, and in particular inhibits those cancers rich in glucocorticoid receptors
Glucocorticoid activity (in words) [3]: anti-glucocorticoid

Change in thymus weight (in words) ([5]; topical 0.1 percent): no significant effect on thymus weight
Decrease of thymus weight from control ([5]; topical 1 percent): 27%
Thymus weight ([5]; topical 1 percent, four days): 0.207±0.035 gm
Compound: C[C@]12C=CC(=O)C=C1CC[C@@H]1[C@@H]2[C@@H](O)C[C@@]2(C)[C@H]1CC[C@]2(O)C(=O)O [Compound 2013, 17β-carboxyl-11β,17α-dihydroxy-3-oxo-1,4-androstadiene]
Neovascularization (percent of the corneal area occupied by blood vessels) ([4]; Experiment A, topical 0.01%): 26.2 ± 6.3%
Percent Inhibition of neovascularization ([4]; Experiment A, topical 0.01%): +21%
Neovascularization (percent of the corneal area occupied by blood vessels) ([4]; Experiment A, topical 0.1%): 13.9 ± 7.3%
Percent Inhibition of neovascularization ([4]; Experiment A, topical 0.1%): 36%
Neovascularization (percent of the corneal area occupied by blood vessels) ([4]; Experiment A, topical 1.0%): 9.8 ± 2.0%
Percent Inhibition of neovascularization ([4]; Experiment A, topical 1.0%): 55%
Neovascularization (percent of the corneal area occupied by blood vessels) ([4]; Experiment B, topical 0.01%): 18.3 ± 4.0%
Percent Inhibition of neovascularization ([4]; Experiment B, topical 0.01%): 22%
Neovascularization (percent of the corneal area occupied by blood vessels) ([4]; Experiment B, topical 0.1%): 14.6 ± 6.8%
Percent Inhibition of neovascularization ([4]; Experiment B, topical 0.1%): 38%
Neovascularization (percent of the corneal area occupied by blood vessels) ([4]; Experiment B, topical 1.0%): 16.0 ± 3.6%
Percent Inhibition of neovascularization ([4]; Experiment B, topical 1.0%): 32%
Inhibition of corneal vascularization (significance, in words) ([4]; applied topically): did cause significant inhibition of corneal vascularization
Effect on body weight (in words) [6]: Body weight was unaffected by treatment with any concentration
Neovasc. ([7]; 10 mg/kg/day subcutaneous): 21.5 ± 6.3%
Neovasc. ([7]; 25 mg/kg/day subcutaneous): 17.1 ± 3.0%
Degree of leukocytic infiltrate versus vehicle (in words) ([8]; 24 or 96 hours post-cautery): no difference in the degree of leukocytic infiltrate
Corneal reepithelialization and neovascularization (in words) ([8]; 24 hours after cautery): Neither corneal reepithelialization nor neovascularization were observed
Corneal reepithelialization (in words) ([8]; 96 hours post-cautery): all corneas were reepithelialized
Neovascularization (histological) ([8]; 96 hours post-cautery): 0.6±0.6
Neovascularization versus vehicle (in words) ([8]; 96 hours post-cautery): marked reduction in neovascularization
Growth inhibition of Dunning R3327 (PAP) (in words) [9]: inhibits growth of the Dunning R3327 (PAP) prostatic adenocarcinoma
Neodifferentiation into adipose cells (in words) [10]: promotes neodifferentiation
